# Experimental data from US20260337212A1, “IP4-4,6 SUBSTITUTED DERIVATIVE COMPOUNDS FOR USE IN THE TREATMENT, INHIBITION OF PROGRESSION, AND PREVENTION OF ECTOPIC CALCIFICATION” (SANIFIT THERAPEUTICS, S.A., priority 2022, published 2026).
# Test: Rat calcinosis cutis/calciphylaxis model (vitamin D3 and FeCl3): skin plaque calcification
# Format: in vivo, Sprague Dawley rat
# Details: for Skin plaque % inhibition of calcification: FeCl3 0.5 mg/kg
# Procedure: The dose-response efficacy of IP4-4,6 derivatives in the prevention and treatment of calcinosis cutis and calciphylaxis (CUA) induced by vitamin D3 and FeCl3 in a rat model was used. The model evaluated the effects of Compound 27 and IP6 on the formation of calcified skin plaques in rats for a duration of 8 days. Animals were sensitized at low concentration (LC, 35,000 IU/kg) and high concentration (HC, 50,000 IU/kg) doses of vitamin D3. A FeCl3 solution (0.5 mg/kg) was used as challenger to induce the formation of skin plaques. All animals were weighed every day before treatment.
# Eighty-six male Sprague Dawley (SD) rats (Envigo Corp., Huntingdon, GB) weighing approximately 250-300 g were used. The animals were fed with a standard LASQCdiet® Rod14-H diet (LASvendi, Soest, DE). The animals were divided in 8 groups, 6 to 12 animals per group, as follows:
# The following solutions were prepared: (a) 17,500 IU/mL (LC) and 25,000 IU/mL (HC) vitamin D3 (cholecalciferol, Duphafral D3 1000; Zoetis Inc., Parsippany, NJ, US), (b) 0.3 mg/mL FeCl3 (FeCl3·6H2O, 99%, Scharlab S. L., Barcelona, E S), (c) 30 mg/mL IP6 (660 g/mol phytic acid, pH 6.5-7.7), and (d) 15, 30, and 50 mg/mL Compound 27 (754.45 g/mol free acid, pH 6.5-7.7). All solutions were prepared in a 0.9% (w/v) physiological saline NaCl medium. An application volume of 2 mL/kg was employed.
# Group 1—Control (sham), 6 animals. Animals in group 1 were administered subcutaneously physiological saline (0.9% (w/v) NaCl solution daily from D1 to D3 in the interscapular space, and with one saline 0.9% injection at each of the two ventral sites in the thorax on D4. Animals in group 1 were not administered Vit D or FeCl3 solutions.
# (§1) Group 2—Physiological saline solution low concentration (Vehicle LC): Vit D 35,000 IU/kg, 0.5 mg/kg FeCl3 solution, 10 animals. Vit D at dose 35,000 IU/kg was administered subcutaneously x 3 consecutive days (D1, D2, D3), and one 0.5 mg/kg FeCl3 injection at each of the two ventral sites in the thorax on D4. This group received a daily saline 0.9% s.c. treatment (D1 to D8).
# (§2) Group 3—Compound 27 60 mg/kg LC: Vit D 35,000 IU/kg, 0.5 mg/kg FeCl3, 10 animals. Vit D at dose 35,000 IU/kg was administered subcutaneously x 3 consecutive days (D1, D2, D3), and one 0.5 mg/kg FeCl3 injection at each of the two ventral sites in the thorax on D4. This group received a daily Compound 27 s.c. treatment at 60 mg/kg dose (D1 to D8).
# as §1, with “4—Physiological” for “2—Physiological”, “high” for “low”, “HC):” for “LC):”, “50,000” for “35,000”, “FeCl3, 12” for “FeCl3 solution, 10”
# as §2, with “5—IP6” for “3—Compound 27”, “HC,” for “LC:”, “50,000” for “35,000”, “12” for “10”, “IP6” for “Compound 27”
# as §2, with “6—Compound” for “3—Compound”, “30” for “60”, “HC,” for “LC:”, “50,000” for “35,000”, “12” for “10”
# as §2, with “7—Compound” for “3—Compound”, “[…],” for “LC:”, “50,000” for “35,000”, “12” for “10”
# Group 8—Compound 27 100 mg/kg HC, Vit D 50,000 IU/kg, 0.5 mg/kg FeCl3, 12 animals. […]
substance,measurement,setting,value
"4,6-O-bis(5-acetamidopentyl)-myo-inositol-1,2,3,5-tetrakis(phosphate) octasodium salt [Compound 27]",Skin plaque % inhibition of calcification,"30 mg/kg s.c. daily D1-D8, HC (vitamin D3 50,000 IU/kg)",96.8 ± 0.7 %
same,Skin plaque % inhibition of calcification,"60 mg/kg s.c. daily D1-D8, HC (vitamin D3 50,000 IU/kg)",98.2 ± 0.1 %
same,Skin plaque % inhibition of calcification,"60 mg/kg s.c. daily D1-D8, LC (vitamin D3 35,000 IU/kg)",95.7 ± 0.9 %
same,Skin plaque % inhibition of calcification,"100 mg/kg s.c. daily D1-D8, HC (vitamin D3 50,000 IU/kg)",98.6 ± 0.1 %
same,Inhibition of the formation of skin plaque,"30, 60, 100 mg/kg s.c.",inhibits the formation of skin plaque in rats in a dose-response manner
same,Degree of inhibition of skin plaque calcification compared with IP6,same dose (60 mg/kg),higher than that reached by IP6 at the same dose
